The values that follow come from PubChem BioAssay (NCI).

Common to all, as to assay: growth of human tumour cells (NCI), 48 h
In experiment [1] the test system is OVCAR-3 ovarian.
The subject of experiment [2] is RPMI-8226 leukemia.
The subject of experiment [3] is CCRF-CEM leukemia.
Experiment [4] deals with UACC-257 melanoma.
The test system of experiment [5] is HOP-92 NSCLC.
Experiment [6] relates to T-47D breast.
The test system of experiment [7] is U251 CNS.
Experiment [8] concerns 786-0 renal.
Experiment [9] deals with KM12 colon.
For experiment [10], the system named is SF-268 CNS.

Several values for one entry are separate records, joined by “and”; a condition that tells them apart may be missing. Equal entries are not always repeated.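 Interpolation was linear, between the two tested concentrations surrounding the appropriate level; five concentrations were tested over 48 hours in 96-well plates. GI50: concentration for 50% inhibition of growth. The concentration for full growth arrest is given as TGI.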

As for `COC(=O)NC(Cc1ccccc1)NC(C)=O` (stereo not given), the TGI in experiment [1], in experiment [2], in experiment [3], in experiment [4], in experiment [5] and in [6] was over 100 µM each time. For the same molecule, the TGI in experiment [7], in experiment [8], in experiment [9] and in [10] was over 100 µM each time.
In the case of `O=C(O)CNC(=O)c1ccc2cc(C(=O)N3CC(CCl)c4ccc([N+](=O)[O-])cc43)[nH]c2c1` (stereo not given), the TGI in experiment [1], in experiment [2], in experiment [3], in experiment [4], in experiment [5] and in [6] was over 100 µM in each case. For the same molecule, the TGI in experiment [7], in experiment [8], in [9] and in experiment [10] was over 100 µM throughout.
As to `Cc1ccc2c(C(=O)c3c(C)n(CCN4CCOCC4)c4ccccc34)cccc2c1`, the TGI in [1] was 12.4 µM; in experiment [2], 18.6 µM; in [3], 13 µM; in experiment [4], 69.4 µM; in experiment [5] it was 73.1 µM; in [6] it was over 100 µM. The TGI in [7] is 41 µM; in experiment [8], 49 µM; in experiment [9], 57.7 µM; in experiment [10], 33.8 µM.
On to `CC12ON(P(=O)(c3ccccc3)c3ccccc3)C(C)(c3ccccc31)c1ccccc12`, for which the TGI in [1], in experiment [2], in [3], in [4], in experiment [5] and in [6] was over 100 µM in each case. For the same molecule, the TGI in [7], in experiment [8], in experiment [9] and in [10] was over 100 µM in each case.
In the case of `CC(=O)N(C(C)=O)n1c(Cc2ccc(C)cc2)nn(C(C)=O)c1=O`, the TGI in experiment [1], in experiment [2], in [3], in experiment [4], in experiment [5] and in experiment [6] was over 100 µM each time. In addition, the TGI in experiment [7], in [8], in experiment [9] and in experiment [10] was over 100 µM throughout.
Turning to `COc1ccc(N=C2C(=Nc3ccc(OC)cc3)N(c3ccc(N(C)C)cc3)C(=S)N2c2ccc(OC)cc2)cc1`, the TGI was over 100 µM in experiment [1]; over 100 µM in experiment [2]; over 100 µM in [3]; over 58.1 µM in experiment [4]; over 100 µM in experiment [5]; over 100 µM in [6]. Further, the TGI in experiment [7], in experiment [8], in [9] and in [10] was over 100 µM in each case.
With `CCCN(CCC)C1CCc2c(ccc3cc[nH]c23)C1` (stereo not given), the TGI in experiment [1] is over 100 µM; in [2], over 100 µM; in experiment [3], 73.3 µM; in experiment [4] it was 81.2 µM; in experiment [5], over 100 µM; in experiment [6], over 100 µM. Besides, the TGI in experiment [7], in experiment [8], in experiment [9] and in [10] was over 100 µM in each case.
With `O=C(c1ccc(O)c([N+](=O)[O-])c1)c1ccc(O)c([N+](=O)[O-])c1`, the TGI in experiment [1], in [2], in experiment [3], in [4], in [5] and in experiment [6] was over 100 µM each time. Further, the TGI in experiment [7], in experiment [8], in experiment [9] and in experiment [10] was over 100 µM in each case.
`Cc1ccc(S(=O)(=O)N/N=C2/CCC(C(C)(C)C)CC2Br)cc1` (stereo not given): the TGI in experiment [1] was 48.9 µM; in experiment [2], 82.3 µM; in experiment [3], 64.2 µM; in experiment [4], over 100 µM; in experiment [5], 72.3 µM; in experiment [6], over 100 µM. The TGI is 21.1 µM in experiment [7], 99.4 µM in experiment [8], 47 µM in experiment [9] and over 100 µM in experiment [10].
With `COCC12CCC(OC)C34C5CC6(O)C(OC)CC(OC(C)=O)(C5C6OC(=O)c5ccccc5)C(C(OC)C13)C4N(C)C2` (stereo not given), the TGI in experiment [1], in experiment [2], in experiment [3], in experiment [4], in [5] and in experiment [6] was over 100 µM each time. Besides, the TGI in [7], in experiment [8], in experiment [9] and in [10] was over 100 µM throughout.
On to `COc1ccc2c(c1)c1nn(CCN3CCCCC3)c3ccc4c(=O)n(CCN(C)C)c(=O)n2c4c13`, for which the TGI in experiment [1] was 0.344 µM; in [2], 0.0862 µM; in experiment [3], 0.785 µM; in experiment [4], 0.885 µM; in experiment [5] it was 0.901 µM; in experiment [6] it was 0.454 µM. Also, the TGI amounted to 0.111 µM in [7], 0.059 µM in experiment [8], 0.0801 µM in [9] and 0.0766 µM in experiment [10].
Turning to `CCOC(=O)C(=O)CC(=O)C1=C(c2ccccc2OC)CC(c2cccs2)=CC1=O`, the TGI in experiment [1], in experiment [2], in experiment [3], in [4], in experiment [5] and in [6] was over 100 µM in each case. The TGI in experiment [7], in experiment [8], in experiment [9] and in [10] was over 100 µM throughout.
Regarding `CCCc1nnc2sc(COc3cc(Cl)c(OCc4nn5c(CCC)nnc5s4)cc3Cl)nn12`, the TGI in experiment [1] is 78.5 µM; in [2] it was over 100 µM; in experiment [3], 46.8 µM; in experiment [4], over 100 µM; in [5], 70.7 µM; in experiment [6], 63.5 µM. Besides, the TGI in [7], in experiment [8], in [9] and in experiment [10] was over 100 µM each time.
Regarding `Cc1cc2oc(C)c(S(=O)(=O)NC(=O)Nc3ccc(Cl)cc3)c(=O)c2c(=O)o1`, the TGI in experiment [1], in experiment [2], in experiment [3], in [4], in experiment [5] and in experiment [6] was over 100 µM throughout. For the same molecule, the TGI in experiment [7], in experiment [8], in experiment [9] and in [10] was over 100 µM in each case.
Turning to `CC(=O)OCCCCn1cc(Cn2ccc(=O)n(Cc3cn(CCCCOC(C)=O)nn3)c2=O)nn1`, the TGI in [1], in [2], in [3], in [4], in experiment [5] and in experiment [6] was over 100 µM throughout. The TGI in experiment [7], in [8], in [9] and in experiment [10] was over 100 µM each time.
With `COc1ccc2c(c1)CCN1CCCc3ccccc3C21` (stereo not given), the TGI in experiment [1] is over 100 µM; in experiment [2], 58.2 µM; in experiment [3], over 100 µM; in experiment [4] it was over 100 µM; in [5] it was over 100 µM; in experiment [6], over 100 µM. Besides, the TGI in experiment [7], in experiment [8], in experiment [9] and in [10] was over 100 µM throughout.
`O=C(N/N=C(/COc1ccccc1Cl)N=Cc1ccncc1)c1ccncc1`: the TGI in experiment [1], in [2], in experiment [3], in [4], in experiment [5] and in experiment [6] was over 100 µM each time. Also, the TGI in experiment [7], in [8], in experiment [9] and in experiment [10] was over 100 µM throughout.
For the molecule `CCOC(=O)C(NC(=O)CC)(Nc1ccc(F)c(Cl)c1)C(F)(F)F` (stereo not given), the TGI in [1], in [2], in [3], in [4], in experiment [5] and in [6] was over 100 µM each time. Further, the TGI in experiment [7], in experiment [8], in experiment [9] and in experiment [10] was over 100 µM in each case.
For `CCCC(=O)NC(Nc1ccc(F)cc1)(C(F)(F)F)C(F)(F)F`, the TGI in experiment [1] is over 100 µM; in experiment [2] it was over 100 µM; in [3], over 26.7 µM; in [4], over 100 µM; in experiment [5], over 100 µM; in [6], over 100 µM. For the same molecule, the TGI in experiment [7], in [8], in experiment [9] and in experiment [10] was over 100 µM in each case.
With `CCCCCCCCCCCCCCCCCC(=O)Nc1ccn(C2CCC(COP(=O)(O)O)O2)c(=O)n1` (stereo not given), the TGI in experiment [1], in [2], in experiment [3], in [4], in experiment [5] and in experiment [6] was over 100 µM each time. In addition, the TGI in [7], in [8], in experiment [9] and in experiment [10] was over 100 µM in each case.
As for `COC12C=CC(C=C1C#N)CC2` (stereo not given) (tested in a mixture with another compound), the TGI in experiment [1], in [2], in [3], in experiment [4], in [5] and in experiment [6] was over 100 µM in each case. Further, the TGI in experiment [7], in [8], in [9] and in [10] was over 100 µM each time.
Take `CC(=O)NC1(C(=O)N[C@@H](Cc2ccccc2)C(=O)NC2CCCCC2)Cc2ccc3ccccc3c2-c2c(ccc3ccccc23)C1`: the GI50 in [1] was 2.91 µM and 7.77 µM; in [2], 3.31 µM and 13.9 µM; in experiment [4], 2 µM and 5.32 µM; in experiment [9], 2.89 µM and 6.88 µM; in [10] it was 8.66 µM and 31.3 µM. For the same molecule, the TGI in experiment [1] was over 100 µM; in experiment [2], over 100 µM; in experiment [3], > 100 µM and 40.3 µM; in experiment [4], 10.8 µM and 75.5 µM; in experiment [5] it was over 100 µM; in experiment [6], over 100 µM. Besides, the TGI in experiment [7], in experiment [8], in experiment [9] and in [10] was over 100 µM in each case.
As for `COC1=C2C=[N+](C)C3C(=C2C=CC1OC)Cc1cc2c(cc13)OCO2` (stereo not given), the TGI in [1] was 13.7 µM; in experiment [2], 27.1 µM; in experiment [3] it was over 100 µM; in experiment [4], 26.2 µM; in experiment [5], 49.3 µM; in experiment [6], 18.8 µM. Further, the TGI in [7] came to 30.7 µM; in experiment [8], 29.6 µM; in experiment [9] it was 10.4 µM; in experiment [10], 20.3 µM.
As for `C=Cc1nc(C#N)c(N)o1`, the TGI in experiment [1], in experiment [2], in experiment [3], in experiment [4], in [5] and in experiment [6] was over 100 µM in each case. Further, the TGI in experiment [7], in [8], in experiment [9] and in [10] was over 100 µM in each case.
In the case of `O=C1CS[C@@](CC(c2ccc(Cl)cc2)c2ccc(Cl)cc2)(c2ccc(Cl)cc2)N1`, the TGI was 38 µM in experiment [1]; 35.6 µM in [2]; over 100 µM in experiment [3]; over 100 µM in experiment [4]; 75 µM in experiment [5]; over 100 µM in experiment [6]. Moreover, the TGI was 63.1 µM in experiment [7], 71.2 µM in experiment [8], over 100 µM in [9] and over 100 µM in experiment [10].
On to `CNC(=S)NNc1ncnc2c1ncn2-c1ccc(C)cc1`, for which the TGI in experiment [1], in [2], in experiment [3], in experiment [4], in experiment [5] and in experiment [6] was over 100 µM in each case. In addition, the TGI in experiment [7], in [8], in experiment [9] and in experiment [10] was over 100 µM each time.
